Key:
[1] = system: yeast deletion collection; experiment: Genome-wide fitness assay in yeast (pooled deletion strains); type: cell-based; conditions: for Sensitivity of DNA damage/repair genes (NER, HRR, PRR): phosphaplatins at 200 μM final concentration
Source text: The around 6000 strains in the yeast deletion collection can be studied in a single culture by using a microarray to detect the 20 bp DNA “barcodes” or “tags” contained in each strain. Barcode intensities are compared across time-points or across conditions to analyze the relative fitness of each strain. This development of the pooled fitness assay has greatly facilitated the functional annotation of the yeast genome by making genome-wide gene-deletion studies faster and easier, and has led to the development of high throughput methods for studying drug action in yeast. Pooled screens can be used for identifying gene functions, measuring the functional relatedness of gene pairs in order to group genes into pathways, identifying drug targets, and determining a drug's mechanism of action. This process involves five main steps: preparing aliquots of pooled cells, pooled growth, isolation of genomic DNA and PCR amplification of the barcodes, array hybridization (or next generation sequencing), and data analysis.
The pooled fitness assay involves five main steps (FIG. 3). First, the deletion collection is grown on solid media in arrayed format and the resulting cells are pooled and frozen to make cell aliquots that will be used for starting growth experiments. Cells are then grown in the desired conditions, typically for 5 to 20 generations. The barcodes from the resulting cell samples are prepared for hybridization by isolation of the genomic DNA and PCR amplification of the barcodes. The barcodes are amplified in two reactions to prevent crosstalk between the uptag and downtag primers. The resulting PCR products are then hybridized to tag arrays with one array needed per cell sample. Data is then analyzed to determine differences in strain representation between pairs of samples.
To analyze the genome wide effects of pyrodach-2 and -4, we screened 2 collections of strains, 1200 essential genes as heterozygote deletion mutants (reducing functional gene dose from 2 to 1) and 4800 non-essential genes as complete deletions (reducing functional gene dose from 2 to 0). Both compounds were screened at the highest dose possible (200 μM final concentration) to increase the likelihood of finding compound-specific sensitive strains.
Fitness profiling of pooled deletion strains involves […] main steps: • 1. Strains are first pooled at approximately equal abundance. • 2. The pool is grown competitively in the condition of choice and a control condition. If a gene is sensitive to the treatment condition, the strain carrying this deletion will grow more slowly and become under-represented relative to the control culture (purple strain). Resistant strains will grow faster and become over-represented (not shown). • 3. Genomic DNA is isolated from cells harvested at the end of pooled growth, and barcodes are amplified from the genomic DNA with universal primers. • 4. PCR products are then hybridized to an array that detects the tag sequences, giving tag intensities for the two samples. • 5. The treatment and control sample are then compared to determine the relative fitness of each strain. Note that only the purple strain is described as sensitive to the condition. While the red strain grows more slowly than the blue strain in the treatment, this growth difference in not of interest because it matches that seen in the control.

VEGFR2 gene [2] = experiment: Quantitative real-time PCR, VEGFR2 gene expression in A2780/C30 cells; type: cell-based, human; conditions: A2780/C30 (cisplatin-resistant); positive = manifold increase, negative = relative decrease vs untreated cells; cisplatin 7 μM, pyrodach-4 180 μM
Procedure: (§1) Evaluations of selected gene expressions in Human Umbilical Vein Endothelial Cells (HUVEC) and Human Ovarian Cancer Cells by quantitative reverse transcriptase polymerase chain reaction (PCR)
(§2) Quantitative real-time PCR experiments were performed to estimate the expression of a selection of targeted genes. HUVEC cells (Lonza Walkersville, Frederick, Md.) were cultured on 0.1% gelatin-coated petri dishes by following standard protocols recommended by the vendor in a humidified incubator by maintaining 5% CO2 at 37° C. Human epithelial ovarian cancer cells (A2780) and cisplatin-resistant cells (A2780/C30) were cultured in RPMI 1640 with or without cisplatin (7 μM) and pyrodach-4 (180 μM) for 0, 3, 12 and 24 hours. […] HUVECs were treated with or without cisplatin (7 μM) or pyrodach-4 (90 or 180 μM) for various durations ranging from 1 hr. to 6 hrs.
(§3) Both treated and untreated cancer cells were maintained in RPMI 1640 medium with 10% fetal bovine serum, 2 μmol L-glutamine, 100 units/mL penicillin-streptomycin and 0.25 units/mL insulin solution, at 37° C. with 5% CO2. RNA was isolated from both the treated and untreated cells. […] The quantity and purity of RNA were determined by UV spectroscopy (NanoDrop 2000 Thermo Scientific, Wilmington, Del.). A minimum absorbance ratio index (ratio of the absorbance measured at 260 nm over that at 280 nm) of 1.9 was used as an acceptable purity. […] The target gene was labeled with a blue dye (FAM, absorbance: 494 nm, emission: 518 nm) while the reference gene was tagged with a green dye (VIC, absorbance: 538 nm, emission: 554 nm). The cDNA concentrations were selected such that the threshold cycle (Ct) values for the target genes were between 17 and 32, most sensitive for the fluorescence detection by ABI StepOnePlus™ instrument used for the measurements.
(§4) The threshold cycle number (Ct), the point at which the fluorescence of the qPCR reaction just exceeds the threshold fluorescence of the detection system, was determined. […]

VEGFR2 gene [3] = experiment: Quantitative real-time PCR, VEGFR2 gene expression in A2780 cells; type: cell-based, human; conditions: A2780 (cisplatin-sensitive); positive = manifold increase, negative = relative decrease vs untreated cells; cisplatin 7 μM, pyrodach-4 180 μM
Procedure: as §1, §2, §3, §4

A2780/C30 cells = experiment: Cell death detection assay with ELISA, A2780/C30 cells; type: cell-based, human; conditions: 7 μM cisplatin or 180 μM D4
Procedure: In these experiments, ovarian cancer cells were treated with pyrodach-4 in the presence and absence of inhibitors PFT-α (an inhibitor p53) and LY29400 (an inhibitor of PI3K).
The different treatment groups from left to right are: control, 7 μM cisplatin, Con+PFT-α, 180 μM D4, 180 μM D4+PFT-α, 180 μM D4+LY294002. Apoptosis was quantified using the Cell Death Detection ELISA from Roche.
A2780 and A2780/C30 cells were grown in monolayers, trypsinized and suspended in supplemented RPMI 1640 media as described in Example 5. All the treatments on the Fc/A2780 and Fc/A2780/C30 cell samples were carried out in triplicate. The ELISA was performed according to the manufacturer's instructions. Briefly, 50,000 cells were plated for each treatment and the cells were allowed to adhere for 4-6 hours. Cells were then either incubated with media alone (untreated sample) or with pyrodach-4 or cisplatin in the concentrations indicated above. DNA of the treated and untreated cells was assayed for nucleosomal DNA using the ELISA kit (purchased from Roche Diagnostics, Mannheim, Germany). The cells were lysed for 30 minutes using the lysis buffer. After centrifuging, 10% (v/v) supernanant was incubated with anti-histone-biotin and anti-DNA-peroxidase. After two hour incubation, the pellets were washed three times and incubated with the substrate solution. The absorbances were measured at 405 and 490 nm for each treatment type using SPECTRA Max M2 multichannel fluorescence plate reader (Molecular Devices, Sunnyvale, Calif.). The absorbances of the treated samples were normalized to the substrate solution.

[4] = yeast deletion strains, 200 μM final concentration

NC1CCCCC1N.O=P([O-])(O)OP(=O)([O-])O.[Pt+2] (racemic) [pyrodach-2, trans-(±)-1,2-cyclohexanediamine(pyrophosphato) platinum(II)]
Tolerability by the yeast cell (few sensitive strains) ([1]; highest dose possible, 200 μM final concentration): well tolerated by the cell | Compound-specific sensitive strain [1, 4]: induced sensitivity in the strain avo2 | Functions enriched among sensitive strains [1, 4]: 1) iron and copper transport and 2) metal-regulated transcription factors | Sensitivity of DNA damage/repair genes (NER, HRR, PRR) ([1]; yeast deletion strains): not a single gene involved in DNA repair or other DNA metabolic processes showed any sensitivity as a mutant

N.N.[Cl][Pt][Cl] [Cisplatin, cisplatin, reference compound]
Normalized expression of VEGFR2 gene (VEGFR2 gene [2]): 2.0 | Normalized expression of VEGFR2 gene (VEGFR2 gene [3]): 2.5 | Sensitivity of DNA damage/repair genes (NER, HRR, PRR) ([1]; yeast deletion strains): induced expression of those genes related to the DNA response | Apoptotic cell death (ELISA absorbance) (A2780/C30 cells): insignificant increase in absorbance

From patent US20130236568A1, “PHOSPHAPLATINS HAVING ANTI-ANGIOGENIC, ANTI-METASTATIC, AND PRO-APOPTOTIC PROPERTIES AND USES THEREOF” (Ohio University, priority 2011, published 2013)
